Test results taken from PubChem BioAssay AID1963862 (Molecular Pharmacology Branch, DTP, NCI, 2024).

Test system: KRAS patient-derived spheroids with HUVEC/MSC, viability
Assay: Anticancer human tumor 941728-121-R-J1-PDC patient-derived lung adenocarcinoma cell line growth inhibition [KRAS2]
Details: for viability, T/C: stronger effect = lower value
Outline: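 KRAS-mutant tumor cells were grown as spheroids with HUVEC endothelial cells and human MSCs as stroma. Targeted agents were tested alone and with KRAS pathway inhibitors. Doses started at or near clinical Cmax, or 10 microM, descending half-log.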

[1] = curve of first compound, second compound 0.1 µM
[2] = curve of first compound, second compound 0.316 µM
[3] = curve of first compound, second compound 1 µM
[4] = curve of first compound, second compound 3.16 µM
[5] = curve of first compound, second compound 10 µM
[6] = second compound 0.1 µM, first compound 0.00316 µM
[7] = second compound 0.1 µM, first compound 0.01 µM
[8] = second compound 0.1 µM, first compound 0.0316 µM
[9] = second compound 0.1 µM, first compound 0.1 µM
[10] = second compound 0.1 µM, first compound 0.316 µM
[11] = second compound 0.1 µM, first compound 1 µM
[12] = second compound 0.316 µM, first compound 0.00316 µM
[13] = second compound 0.316 µM, first compound 0.01 µM
[14] = second compound 0.316 µM, first compound 0.0316 µM
[15] = second compound 0.316 µM, first compound 0.1 µM
[16] = second compound 0.316 µM, first compound 0.316 µM
[17] = second compound 0.316 µM, first compound 1 µM
[18] = second compound 1 µM, first compound 0.00316 µM
[19] = second compound 1 µM, first compound 0.01 µM
[20] = second compound 1 µM, first compound 0.0316 µM
[21] = second compound 1 µM, first compound 0.1 µM
[22] = second compound 1 µM, first compound 0.316 µM
[23] = second compound 1 µM, first compound 1 µM
[24] = second compound 3.16 µM, first compound 0.00316 µM
[25] = second compound 3.16 µM, first compound 0.01 µM
[26] = second compound 3.16 µM, first compound 0.0316 µM
[27] = second compound 3.16 µM, first compound 0.1 µM
[28] = second compound 3.16 µM, first compound 0.316 µM
[29] = second compound 3.16 µM, first compound 1 µM
[30] = second compound 10 µM, first compound 0.00316 µM
[31] = second compound 10 µM, first compound 0.01 µM
[32] = second compound 10 µM, first compound 0.0316 µM
[33] = second compound 10 µM, first compound 0.1 µM
[34] = second compound 10 µM, first compound 0.316 µM
[35] = second compound 10 µM, first compound 1 µM
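Also: spheroids exposed to agents for seven days before readout.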

CCN1CCN(Cc2ccc(Nc3ncc(F)c(-c4cc(F)c5nc(C)n(C(C)C)c5c4)n3)nc2)CC1 + CC1OCC2(CCN(c3cnc(Sc4ccnc(N)c4Cl)c(N)n3)CC2)C1N
IC50 [1]: < 3.16 nM
IC50 [2]: < 3.16 nM
IC50 [3]: < 3.16 nM
IC50 [4]: < 3.16 nM
IC50 [5]: < 3.16 nM
viability, T/C [6]: 47.5%
viability, T/C [7]: 40.5%
viability, T/C [8]: 36.2%
viability, T/C [9]: 35.9%
viability, T/C [10]: 37.5%
viability, T/C [11]: 44.4%
viability, T/C [12]: 35.3%
viability, T/C [13]: 31.2%
viability, T/C [14]: 30.5%
viability, T/C [15]: 31.7%
viability, T/C [16]: 24.3%
viability, T/C [17]: 26%
viability, T/C [18]: 32.5%
viability, T/C [19]: 29.4%
viability, T/C [20]: 29.1%
viability, T/C [21]: 28.5%
viability, T/C [22]: 23.1%
viability, T/C [23]: 17.5%
viability, T/C [24]: 25.8%
viability, T/C [25]: 25.4%
viability, T/C [26]: 24.2%
viability, T/C [27]: 24.4%
viability, T/C [28]: 16.5%
viability, T/C [29]: 13.5%
viability, T/C [30]: 22.9%
viability, T/C [31]: 22.7%
viability, T/C [32]: 19.6%
viability, T/C [33]: 15.6%
viability, T/C [34]: 9.09%
viability, T/C [35]: 9.79%

CCN1CCN(Cc2ccc(Nc3ncc(F)c(-c4cc(F)c5nc(C)n(C(C)C)c5c4)n3)nc2)CC1 + COc1cc2nc(C)nc(NC(C)c3cc(N)cc(C(F)(F)F)c3)c2cc1OC1CCOC1
IC50 [1]: < 3.16 nM
IC50 [2]: < 3.16 nM
IC50 [3]: < 3.16 nM
IC50 [4]: < 3.16 nM
IC50 [5]: < 3.16 nM
viability, T/C [6]: 45.9%
viability, T/C [7]: 41%
viability, T/C [8]: 34.2%
viability, T/C [9]: 36.8%
viability, T/C [10]: 42%
viability, T/C [11]: 43.3%
viability, T/C [12]: 44.2%
viability, T/C [13]: 35.3%
viability, T/C [14]: 28.8%
viability, T/C [15]: 31.7%
viability, T/C [16]: 35.3%
viability, T/C [17]: 40.8%
viability, T/C [18]: 27.8%
viability, T/C [19]: 28.7%
viability, T/C [20]: 28.5%
viability, T/C [21]: 27.7%
viability, T/C [22]: 22.1%
viability, T/C [23]: 32.9%
viability, T/C [24]: 23.3%
viability, T/C [25]: 22.7%
viability, T/C [26]: 21.1%
viability, T/C [27]: 19.5%
viability, T/C [28]: 15.6%
viability, T/C [29]: 14.5%
viability, T/C [30]: 17.2%
viability, T/C [31]: 6.08%
viability, T/C [32]: 2.12%
viability, T/C [33]: 0.46%
viability, T/C [34]: 0.87%
viability, T/C [35]: 0.85%

CC(C)n1nc(-c2ccc3oc(N)nc3c2)c2c(N)ncnc21 + COc1cc2nc(C)nc(NC(C)c3cc(N)cc(C(F)(F)F)c3)c2cc1OC1CCOC1
IC50 [1]: < 0.316 nM
IC50 [2]: < 0.316 nM
IC50 [3]: < 0.316 nM
IC50 [4]: < 0.316 nM
IC50 [5]: < 0.316 nM
viability, T/C (second compound 0.1 µM, first compound 0.000316 µM): 41.2%
viability, T/C (second compound 0.1 µM, first compound 0.001 µM): 47.9%
viability, T/C [6]: 40.9%
viability, T/C [7]: 33.3%
viability, T/C [8]: 31%
viability, T/C [9]: 28.3%
viability, T/C (second compound 0.316 µM, first compound 0.000316 µM): 42.4%
viability, T/C (second compound 0.316 µM, first compound 0.001 µM): 50%
viability, T/C [12]: 40.4%
viability, T/C [13]: 24.3%
viability, T/C [14]: 24.9%
viability, T/C [15]: 16.7%
viability, T/C (second compound 1 µM, first compound 0.000316 µM): 40.8%
viability, T/C (second compound 1 µM, first compound 0.001 µM): 37%
viability, T/C [18]: 26.1%
viability, T/C [19]: 19.8%
viability, T/C [20]: 19.9%
viability, T/C [21]: 12.8%
viability, T/C (second compound 3.16 µM, first compound 0.000316 µM): 31.4%
viability, T/C (second compound 3.16 µM, first compound 0.001 µM): 31.9%
viability, T/C [24]: 18.5%
viability, T/C [25]: 15%
viability, T/C [26]: 12.6%
viability, T/C [27]: 4.73%
viability, T/C (second compound 10 µM, first compound 0.000316 µM): 7.59%
viability, T/C (second compound 10 µM, first compound 0.001 µM): 6.39%
viability, T/C [30]: 2.23%
viability, T/C [31]: 2.22%
viability, T/C [32]: 0.71%
viability, T/C [33]: 4.65%

CCN1CCN(Cc2ccc(Nc3ncc(F)c(-c4cc(F)c5nc(C)n(C(C)C)c5c4)n3)nc2)CC1
viability, T/C (compound 0.00316 µM): 86.1% [middle of 5 runs]
viability, T/C (compound 0.01 µM): 71.3% [middle of 5 runs]
viability, T/C (compound 0.0316 µM): 60.2% [middle of 5 runs]
viability, T/C (compound 0.1 µM): 59.9% [middle of 5 runs]
viability, T/C (compound 0.316 µM): 60.4% [middle of 5 runs]
viability, T/C (compound 1 µM): 74.5% [middle of 5 runs]
IC50 (curve of compound): > 1000 nM

COC(=O)c1ccc2c(C(=Nc3ccc(N(C)C(=O)CN4CCN(C)CC4)cc3)c3ccccc3)c(O)[nH]c2c1 + C=CC(=O)N1CCN(c2nc(=O)n(-c3c(C)ccnc3C(C)C)c3nc(-c4c(O)cccc4F)c(F)cc23)C(C)C1
IC50 [1]: < 31.6 nM
IC50 [2]: < 31.6 nM
IC50 [3]: < 31.6 nM
IC50 [4]: < 31.6 nM
IC50 [5]: < 31.6 nM
viability, T/C [8]: 24.5%
viability, T/C [9]: 19.7%
viability, T/C [10]: 16.4%
viability, T/C [11]: 12.7%
viability, T/C (second compound 0.1 µM, first compound 3.16 µM): 10.2%
viability, T/C (second compound 0.1 µM, first compound 10 µM): 7.41%
viability, T/C [14]: 22.8%
viability, T/C [15]: 20.1%
viability, T/C [16]: 18.5%
viability, T/C [17]: 12.8%
viability, T/C (second compound 0.316 µM, first compound 3.16 µM): 8.05%
viability, T/C (second compound 0.316 µM, first compound 10 µM): 6.62%
viability, T/C [20]: 26.3%
viability, T/C [21]: 21.2%
viability, T/C [22]: 16.8%
viability, T/C [23]: 14.4%
viability, T/C (second compound 1 µM, first compound 3.16 µM): 7.55%
viability, T/C (second compound 1 µM, first compound 10 µM): 5.43%
viability, T/C [26]: 27.1%
viability, T/C [27]: 25.1%
viability, T/C [28]: 20.8%
viability, T/C [29]: 17.8%
viability, T/C (second compound 3.16 µM, first compound 3.16 µM): 6.67%
viability, T/C (second compound 3.16 µM, first compound 10 µM): 8.37%
viability, T/C [32]: 41.2%
viability, T/C [33]: 30.2%
viability, T/C [34]: 31.6%
viability, T/C [35]: 29.6%
viability, T/C (second compound 10 µM, first compound 3.16 µM): 4.3%
viability, T/C (second compound 10 µM, first compound 10 µM): 0.23%

O=C(c1cc(Cc2n[nH]c(=O)c3ccccc23)ccc1F)N1CCN(C(=O)C2CC2)CC1
viability, T/C (compound 0.1 µM): 96.4% [middle of 5 runs]
viability, T/C (compound 0.316 µM): 92.6% [middle of 5 runs]
viability, T/C (compound 10 µM): 82% [middle of 5 runs]
IC50 (curve of compound): > 10000 nM
